Like-named read-outs stand apart in the source and are kept apart here. Values belong to the compound of their own block, whether it stands above or below them. Non-standard residues stand in square brackets, D forms with d. Residues, ends and D or L forms follow the SMILES beside them. *: point of attachment. X1 = CCN(CC)C(=S)SCc1ccc(N*)cc1
Tests used:
[1] = system: 22Rv1 cells; experiment: cells; assay type: cell-based, human
Experimental: (§1) Antiproliferation assay: To determine the amount of Cu(II) required for cell studies a checkerboard assay was performed by varying the prodrug or drug concentration and Cu(II) concentration. 22RV1, LNCaP, PC3, MCF-7, and PWR-1E (5,000 cells/well) were seeded in 96-well plates with regular media (22Rv1, LNCaP, and PC-3 in RPMI with 10% FBS; MCF-7 in DMEM with 10% FBS; PWR-1E in Keratinocyte-SFM) and let adhere for 24 h. The following day, the media was replaced with serum free media and cells were treated as indicated for an additional 24 h or 72 h. Cell proliferation was measured using a fluorometric resazurin reduction method. 20 μL of 700 μM Resazurin (Sigma R7017) was added in each well and incubated at 37° C. for 2 h. Fluorescence at 580 nm was measured by exciting at 555 nm with a plate reader. Each experiment was performed in triplicate, and the experiments were repeated three times. Viability vs drug concentration plot from a representative experiment are shown with standard deviation from the experiment as error bar. The error bar in IC50 values represents standard deviation from three different experiments.

[2] = system: LNCaP cells; experiment: cells; assay type: cell-based, human
Experimental: as §1

[3] = system: MCF-7 cells; experiment: cells; assay type: cell-based, human
Experimental: as §1

[4] = system: PC-3 cells; experiment: cells; assay type: cell-based, human
Experimental: as §1

[5] = system: PWR-1E cells; experiment: cells; assay type: cell-based, human
Experimental: as §1

[6] = molecular target: PSA enzyme (Homo sapiens, UniProt P07288); experiment: In vitro cleavage by PSA enzyme (LC trace); assay type: biochemical; conditions: 20 μg/mL of PSA
Chain of PSA enzyme (P07288 25-261): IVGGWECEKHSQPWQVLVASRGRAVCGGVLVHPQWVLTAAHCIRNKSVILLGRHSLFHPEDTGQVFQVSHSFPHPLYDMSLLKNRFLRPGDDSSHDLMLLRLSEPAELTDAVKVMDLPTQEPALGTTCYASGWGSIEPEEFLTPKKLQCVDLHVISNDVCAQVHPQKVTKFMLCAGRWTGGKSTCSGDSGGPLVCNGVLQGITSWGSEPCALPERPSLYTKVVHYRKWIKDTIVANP
Experimental: (§2) It is hypothesized that the […] enzyme cleaves the peptide bond between Tyr and Ser. The cleaved products are shown in Scheme 2. When treated with 20 μg/mL of PSA, PSA-DTC was completely converted to products within 6 h (FIG. 6A).

[7] = system: aminopeptidases; experiment: Further treatment with aminopeptidases (DTC release); assay type: biochemical; conditions: after PSA treatment
Experimental: as §2

[8] = assay type: in vitro ADME, human
Experimental: Conditioned media from prostate cancer cell line, LNCaP, was used to test the cleavage of prodrug. […] Since DTC is not observed in the UV or mass spectrometer, Cu(II) was added before recording mass spectra to visualize the release of DTC. Cu(DTC)2 complex was observed indicating the release of DTC. PSA-DTC was completely cleaved within 4 h.

[9] = system: 22Rv1, LNCaP, PC3, PWR-1E and MCF-7 cells; experiment: Antiproliferation assay across all cell lines; assay type: cell-based; conditions: Homo sapiens, 72 h
Experimental: as §1

[10] = system: mCRPC patients; conditions: phase 1, mCRPC patients; cited from earlier work

IC50 [1]: 770 nM
IC50 [2]: 390 nM
IC50 [3]: 330 nM
IC50 [4]: 490 nM
IC50 [5]: 500 nM
Structure (SMILES): CCN(CC)C(=S)SCc1ccc(NC(=O)[C@@H](CC(C)C)NC(=O)[C@@H](CO)NC(=O)[C@@H](Cc2ccc(O)cc2)NC(=O)[C@@H](Cc2ccc(O)cc2)NC(=O)[C@@H](CO)NC(=O)[C@@H](CO)NC(=O)[C@H](N)CCCNC(=N)N)cc1 [PSA-DTC] (H-[dR][dS][dS][dY][dY][dS][dL]-X1)
antiproliferative activity in checker board assay with Cu ([2]; LNCaP, varying Cu and prodrug, within 24 h (dPSA-DTC: even after 72 h)): showed antiproliferative activity in the presence of Cu
time to complete conversion to products [6]: ≤ 6 h
release of DTC on treatment with aminopeptidases [7]: led to the release of DTC
time to complete cleavage [8]: ≤ 4 h

IC50 ([1]; Homo sapiens, 22Rv1, 24 h, 1 μM CuSO4, read-out: IC50 with 1 μM CuSO4): 72 ± 10 nM
IC50 ([1]; Homo sapiens, 22Rv1, 72 h, 1 μM CuSO4, read-out: IC50 with 1 μM CuSO4): 92 ± 5 nM
IC50 ([1]; Homo sapiens, Table 1, 22Rv1, time and Cu not given, read-out: IC50 values): 65 nM
IC50 ([2]; Homo sapiens, LNCaP, 24 h, LNCaP, 24 h, 1 μM CuSO4, read-out: IC50 with 1 μM CuSO4): 130 ± 20 nM
IC50 ([2]; Homo sapiens, LNCaP, 72 h, LNCaP, 72 h, 1 μM CuSO4, read-out: IC50 with 1 μM CuSO4): 140 ± 10 nM
IC50 ([2]; Homo sapiens, LNCaP, Table 1, LNCaP, time and Cu not given, read-out: IC50 values): 120 nM
IC50 ([3]; Homo sapiens, MCF7, MCF-7, 24 h, 1 μM CuSO4, read-out: IC50 with 1 μM CuSO4): 180 ± 10 nM
IC50 ([3]; Homo sapiens, MCF7, MCF-7, 72 h, 1 μM CuSO4, read-out: IC50 with 1 μM CuSO4): 47 ± 2 nM
IC50 ([3]; Homo sapiens, MCF7, Table 1, MCF-7, time and Cu not given, read-out: IC50 values): 130 nM
IC50 ([4]; Homo sapiens, PC-3, 24 h, 1 μM CuSO4, read-out: IC50 with 1 μM CuSO4): 70 ± 10 nM
IC50 ([4]; Homo sapiens, PC-3, 72 h, 1 μM CuSO4, read-out: IC50 with 1 μM CuSO4): 57 ± 10 nM
IC50 ([4]; Homo sapiens, Table 1, PC-3, time and Cu not given, read-out: IC50 values): 66 nM
IC50 ([5]; Homo sapiens, PWR-1E, 24 h, PWR-1E, 24 h, 1 μM CuSO4, read-out: IC50 with 1 μM CuSO4): 80 ± 20 nM
IC50 ([5]; Homo sapiens, PWR-1E, 72 h, PWR-1E, 72 h, 1 μM CuSO4, read-out: IC50 with 1 μM CuSO4): 70 ± 10 nM
IC50 ([5]; Homo sapiens, PWR-1E, Table 1, PWR-1E, time and Cu not given, read-out: IC50 values): 72 nM
IC50 ([9]; 1 μM CuSO4, read-out: IC50 range across all cell lines): 40 to 150 nM
IC50 ([9]; DSF is a dimer of DTC, read-out: IC50 per monomer): 80 to 300 nM
Structure (SMILES): CCN(CC)C(=S)SSC(=S)N(CC)CC [DSF, disulfiram, reference compound]
Cu(II) added to the growth medium required for antiproliferative activity ([1]; checkerboard pilot studies in 22Rv1 cells): 300 nM
patients who developed grade 3 adverse events [10]: 6 of the 12
toxicity and efficacy outcome [10]: significant toxicity without improvement in efficacy
